Measurements: patent publication US10617656B2, “Methods of increasing the cytotoxicity of chemotherapeutic agents with multisubstrate inhibitors of histone, protein-Lys, polyamine acetylation, and polyamine metabolism” (Vanderbilt University, priority 2010, dated 2020)

Assays:
H358 lung cancer cells [1] = assay: [3H]-thymidine incorporation (DNA synthesis) assay in H358 cells; type: cell-based
Procedure: (§1) (A) Structures of 1a, and the acetylated side chain of a lysine residue within the polypeptide chain of a protein targeted by the acetylating enzyme (R1 and R2 are the main chain elements on both sides of the lysyl residue). (B) [^3H]-thymidine incorporation into DNA of H358 cells pulsed for 6 hrs at three different time points after the addition of increasing concentrations of 1a, i.e., at 6-12 hrs (12 hr curve), at 18-24 hours (24 hr curve), or at 42-48 hrs (48 hr curve). Incorporation is represented as a percentage relative to control (untreated) cells. (C) Cell cycle analysis of propidium iodide-stained cells harvested at various times after addition of 50 μM 1a. % of cells in G1, S, and G2 represents the average of two independent profiles. (D) Western analysis of histone H3 lysine 9 acetylation, histone H3 lysine 56 acetylation, histone H3 lysine 9 methylation, and total histone H3, before “c” or at the indicated times after addition of 50 μM 1a. Each lane represents 60 μg cellular protein.
(§2) Control cells were left untreated. […] Control cells were left untreated.
Cells were either labeled immediately before treatment (starting DNA synthesis rate), or subjected to the indicated treatments and then pulsed on successive days until day 4. DNA synthesis is represented as the percent of starting DNA synthesis rate. Viability was determined for each treatment condition 24 hours post-start of treatment by the trypan blue exclusion assay, with percentages of viable cells indicated to the right of the graph.
H358 cells (2,000/well) in 96-well plates were treated with 1, 10 or 50 μM of spd-1a, spd-2a, spd-3a, spm3, or spm2 for 12 hours. Triplicate wells of cells were pulsed 6 hours with 0.5 μCi [^3H]-thymidine (NEN, Boston Mass.) post-start of drug treatment, and harvested onto filter paper using a Brandel Harvester and subjected to scintillation counting. Untreated cells were pulsed from 0-6 hrs to establish the initial rate of incorporation.
Cells were plated in 96-well plates (2000 cells per well to insure conditions for exponential growth for untreated cells over the time course of the experiment) and exposed to the following treatments: 1a (50 μM); camptothecin (Sigma, St Louis, Mo. 5 nM, 18 hours); cisplatin (Platinol, obtained through local pharmacies, 2 μM, 1 hour 15 minutes), 5-fluorouracil (5FU, Adrucil™, obtained through local pharmacies, 2 μM, 1 hour 15 minutes), Taxotere (provided by the late Dr. Pierre Potier, 5 nM, 18 hours). UVC treatment (40 J/m^2) using a Stratalinker™, Stratagene, La Jolla, Calif.) was carried using medium lacking phenol red. At 0-6 hr, 18-24 hr (day 1), 42-48 hr […], 66-72 hr (day 3), and 90-96 hr (day 4) post-start of treatment, triplicate wells were incubated with 0.5 μCi [^3H]-thymidine (NEN, Boston Mass.), harvested onto filter paper, and subjected to scintillation counting. Trypan blue exclusion assays for cell membrane integrity were carried out as known in the art.
The present inventors used 96-well viability assays as described in Saadatmandi et al (Cancer Gene Therapy (2002) 9:[…]) to examine the effect of 1a on DNA synthesis in H358 cells, as well as the combined effects of 1a and chemotherapeutic agents. H358 cells were plated in 96-well plates at 3000 cells per well. […]

[2] = system: histone H3 lysine 9 acetylation in H358 cells; assay: Western analysis of histone H3 acetylation/methylation in H358 cells; type: cell-based; conditions: 50 μM, 12 hours
Procedure: as §1
Each lane represents 175 μg cell lysate protein.
One 6 cm culture dish of H358 cells per treatment was used. Cells were treated with 50 μM spm-2, spm-3, or spd-3a for 12 hours. Histones were extracted from cells in 0.2M H2SO4 (as described in Furuta, T., et al (2003) J. Biol. Chem. 278: 20303-20312), followed by SDS-PAGE and Western blotting. Blots were probed with anti-acetyl histone H3-lysine 9 (Upstate Biotechnology, Inc.)
Cells were lysed by adding 1 mL of 0.2 M H2SO4. […]
One 10-cm plate of H358 lung cancer cells (about 2×10^6 cells), grown in DMEM+10% Fetal bovine serum as described in reference, were treated for 24 hours with 50 μM 1a inhibitor. […] Treated cells and untreated (control) cells were harvested by lysing in buffer containing 10 mM Hepes pH 7.5, 100 mM NaCl, 300 mM sucrose, 3 mM MgCl2, 1 mM EDTA, 1 mM DTT, 0.5% Triton X-100, 1 mM PMSF, protease inhibitor pellet (Roche) and analyzed on 10% SDS-PAGE gels, followed by Western immunoblot analysis of total histone H3, methylated histone H3 (methylated on lysine 9), and acetylated histone H3 (acetylated on lysine 9). […]

H358 lung cancer cells [3] = type: cell-based; conditions: CPT 5 nM 18 hours + 3a
Procedure: as §2
Cells were given fresh inhibitor on the first, second, and third days of treatment and viability was measured on the 4th day (i.e. 3 days post start of treatment). […]
(A) Structure of Spd-3a. (B) Western analysis of histone H3K9-acetylation and total histone H3, measured in control, untreated H358 lung cancer cells “C” or in H358 cells incubated 12 hours in the presence of 50 μM Spd-2a or Spd-3a. Each lane represents 60 μg cellular protein. (C) [3H]-thymidine incorporation (counts per minute) into DNA of H358 cells during a 6 hour pulse beginning at 42 hours post-start of treatment. Treatments were as follows (bars 1-6 left to right): (1) control: no treatment; (2) CPT alone: 5 nM 18 hours; (3) 3a alone: 50 μM; (4-6) 3a+CPT: CPT (5 nm, 18 hours)+3a at indicated dose. After 18 hours, CPT was removed and medium was replaced with fresh medium containing Spd-3a at the indicated dose. Each bar represents the average of triplicates. (D) 3-day 96-well viability assay of H358 cells grown in the presence of increasing amounts of Spd-2a or Spd-3a, with or without CPT (5 nM 18 hours). […] Each data point represents the average of three wells.
Date of exp: Jul. […] Date of exp: Sep.
(§3) Cells were plated in 96-well plates at 2000 cells per well and treated with the indicated doses of spd-3a. Cell viability was measured by the MTS assay 3 days later.
DLD-1 cells or H358 cells were plated in 96-well plates at 2000 cells per well and treated with the indicated doses of (A) spm-3 or (B) spm-2. (C) Cell viability was measured by the MTS assay 3 days later. Similar experiment using GT41 fibroblasts with spm2 or spm 3. Each assay point represents an average of duplicates. […]

[4] = In vivo toxicity in nude mice (tail vein injection); conditions: 100 μl of 5 mM, approximately 10 mg/kg, twice per week for 3 weeks, 4 mice
Procedure: They injected a second set of 4 mice with 100 μl of spd-3a (5 mM, approximately 10 mg/kg, or about 0.25 mM initial blood concentration), twice per week for 3 weeks.

[5] = 96-well MTS viability assay, GT41F fibroblasts; type: cell-based, human; conditions: human, GT41F skin fibroblasts, spd-3a 1 μM, single agent, read-out: viability retained
Procedure: as §3
DLD-1 cells or H358 cells were plated in 96-well plates at 2000 cells per well and treated with the indicated doses of (A) spm-3 or (B) spm-2. (C) Cell viability was measured by the MTS assay 3 days later. Similar experiment using GT41 fibroblasts with spm2 or spm 3. Each assay point represents an average of duplicates.

[6] = system: endogenous HATs associated with solubilized chromatin; conditions: Parello et al. 1990; cited from earlier work
MCF7 breast cancer cells = conditions: 72 hr assay; DFMO 100 μM, 5FU 2 μM, doxorubicin 100 nM
Procedure: Viability was measured 3 days after the start of treatment and is expressed as a percentage of control (untreated) cell viability.
Each point is average of triplicates. […]
The present inventors carried out 96-well viability assays as we have previously described (Saadatmandi et al, Cancer Gene Therapy (2002) 9:830-9), in which MCF7 breast cancer cells were plated at 3000 cells per well. After overnight attachment, triplicate wells were treated with increasing doses of inhibitor 1a. Control wells were left untreated. After 3 days, cell viability was measured by the MTS assay, which measures the bioconversion of an uncolored substrate to a colored formazan derivative, and is proportional to cell number.

DLD-1 colon cancer = assay: Nude mouse subcutaneous DLD-1 tumor model; type: in vivo; conditions: DFMO only, intratumoral 2 mg/kg
Procedure: Tumors were initiated By subcutaneous implantation of […] DLD-1 colon cancer cells. […] Tumors were measured and volumes calculated as in FIG. 14.
Tumors were initiated by injecting 10^6 DLD-1 cells (from ATCC) per mouse (female nude mouse, 4-5 weeks, Harlan Labs) subcutaneously in the flank. (A) When the average tumor size reached 26 mm^3, animals were randomized into 2 groups (3 per group). One group was left untreated and served as the control (-●-). […] Tumors were measured bidirectionally at 2-3 day intervals and tumor volumes were calculated (v=½ L×w^2). A paired t-test was used to evaluate the significance of the differences between the two groups of animals. […] (B) Tumors were initiated as in part (A). When tumors reached an average size of about 30 mm^3, animals were randomized into three groups of 2 animals each. The control group (-●-) received no treatment. The DFMO group (-▪-) received intratumoral injections of DFMO (2 mg/kg) on days 1, 7, 9 (5 PM), and 2, 8, 10 (9 AM, 5 PM). […] Tumors were measured and volumes calculated as in part (A). A paired t-test was used to evaluate the significance of the difference between the curves.

[7] = system: MDA MB-435 breast cancer cells; assay: 72 hr viability assay, MDA MB-435; type: cell-based; conditions: 72 hr assay; DFMO 100 μM, 5FU 2 μM, doxorubicin 100 nM

SMILES | inhibition of DNA synthesis (H358 lung cancer cells [1]; 1, 10 or 50 μM, 12 hours) | suppression of DNA synthesis in combination with camptothecin (H358 lung cancer cells [1]; CPT 5 nM 18 hours + 3a, pulse at 42 hours) | histone H3K9 acetylation (Western) [2] | histone H3K9 acetylation (Western) ([2]; listed as spd-3a) | suppression of 3-day cell viability in combination with camptothecin (H358 lung cancer cells [3]) | signs of toxicity [4] | viability at 3 days, 1 µM [5] [%] | inhibitory effect on endogenous HATs, compared with Spd-2a [6] | effect as single agent on viability (MCF7 breast cancer cells) | difference between control and treated tumor curves (DLD-1 colon cancer) | effect as single agent on viability [7]
CC(=O)NCCSCC(=O)NCCCNCCCCN [3a] | inhibit DNA synthesis | effective | nearly complete ablation | suppress histone acetylation | effective | no signs of distress or illness | ~60 | lower inhibitory effect than Spd-2a | – | – | –
NCCC[C@](N)(C(=O)O)C(F)F [DFMO, α-difluoromethylornithine] | – | – | – | – | – | – | – | – | ineffective | not significant | ineffective
